Measured values reported in ChEMBL document CHEMBL1143278, “3-Aminoxypropionate-based linker system for cyclization activation in prodrug design” (Bioorg Med Chem Lett, 2009).

Experiments:
[1] = Stability assessed as cyclization activation in phosphate buffer at pH 6.0 by HPLC; assay type: physicochemical
[2] = Stability assessed as cyclization activation in phosphate buffer at pH 7.4 by HPLC; assay type: physicochemical
[3] = Stability assessed as formation of ((2R,3S,5R)-5-(5-fluoro-2,4-dioxo-3,4-dihydropyrimidin-1(2H)-yl)-3-hydroxytetrahydrofuran-2-yl)methyl 3-(aminooxy)-2,2-dimethylpropanoate in phosphate buffer at pH 7.4 in presence of alpha-chymotrypsin; assay type: ADME
[4] = Stability in phosphate buffer at pH 7.4 in absence of alpha-chymotrypsin; assay type: ADME

Compound: Cl.NOCCC(=O)OC[C@H]1O[C@@H](n2cc(F)c(=O)[nH]c2=O)C[C@@H]1O
- half-life [1]: 22.9 h
- half-life [2]: 1.14 h

Compound: CC(C)(CONC(=O)[C@H](Cc1ccccc1)NC(=O)OCc1ccccc1)C(=O)OC[C@H]1O[C@@H](n2cc(F)c(=O)[nH]c2=O)C[C@@H]1O
- t1/2 [3]: 0.608 h
- Stability [4]: Stable

Compound: CC(C)(CON)C(=O)OC[C@H]1O[C@@H](n2cc(F)c(=O)[nH]c2=O)C[C@@H]1O.Cl
- half-life [1]: 23.4 h
- half-life [2]: 0.722 h
